Reference: US20260258035A1, “FIVE-MEMBERED AND SIX-MEMBERED NITROGEN-CONTAINING COMPOUND, AND INTERMEDIATE, PREPARATION METHOD AND USE THEREOF” (HANGZHOU SYNRX THERAPEUTICS BIOMEDICAL TECHNOLOGY CO., LTD., priority 2022, published 2026)
Where two headings read alike, the source gives them in different places.

Experiments:
PARG = PARG (Homo sapiens, UniProt Q86W56); assay: Biochemical assay (PARG, TFMU-ADPr substrate)
HCC1806 = assay: Cell viability assay (CellTiter-Glo); format: cell-based, Human; conditions: HCC1806, 7 days, CellTiter-Glo, read-out: IC50 (nM) in cell viability assay
[1] = 4 nM PARG, 66.2 uM TFMU-ADPr, 3 min at room temperature

Sequence of PARG (Q86W56 whole entry): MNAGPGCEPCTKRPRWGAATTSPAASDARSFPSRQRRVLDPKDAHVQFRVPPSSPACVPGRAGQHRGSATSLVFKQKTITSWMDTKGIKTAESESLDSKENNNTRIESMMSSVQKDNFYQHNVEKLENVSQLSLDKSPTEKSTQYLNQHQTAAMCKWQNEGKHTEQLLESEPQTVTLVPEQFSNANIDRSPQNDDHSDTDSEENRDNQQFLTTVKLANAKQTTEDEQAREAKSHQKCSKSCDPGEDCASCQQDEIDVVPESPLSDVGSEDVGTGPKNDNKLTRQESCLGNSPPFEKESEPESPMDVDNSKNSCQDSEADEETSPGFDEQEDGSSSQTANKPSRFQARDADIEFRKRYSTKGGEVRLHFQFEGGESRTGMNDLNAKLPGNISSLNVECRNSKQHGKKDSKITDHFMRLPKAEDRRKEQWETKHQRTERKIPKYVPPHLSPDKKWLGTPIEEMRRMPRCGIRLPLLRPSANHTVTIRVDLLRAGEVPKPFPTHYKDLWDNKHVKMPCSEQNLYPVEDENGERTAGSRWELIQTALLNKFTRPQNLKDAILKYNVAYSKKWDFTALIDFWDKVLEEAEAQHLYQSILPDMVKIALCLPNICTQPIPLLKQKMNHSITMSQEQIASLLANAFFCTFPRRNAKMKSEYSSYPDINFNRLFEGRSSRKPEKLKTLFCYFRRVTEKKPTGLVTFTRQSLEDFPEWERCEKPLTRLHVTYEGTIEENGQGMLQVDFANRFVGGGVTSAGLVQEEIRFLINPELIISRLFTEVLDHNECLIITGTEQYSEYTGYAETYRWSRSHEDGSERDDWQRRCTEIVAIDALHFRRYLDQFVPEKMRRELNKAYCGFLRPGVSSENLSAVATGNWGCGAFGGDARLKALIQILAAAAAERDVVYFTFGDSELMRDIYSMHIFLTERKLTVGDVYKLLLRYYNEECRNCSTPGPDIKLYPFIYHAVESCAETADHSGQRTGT

Question: With `CC(C)C(=O)N1CCN(c2cc(S(=O)(=O)NC3(C)CNC3)cn3c(-c4nnc(C(F)F)s4)ncc23)CC1` [Example 50, 3-(5-(difluoromethyl)-1,3,4-thiadiazol-2-yl)-8-(4-isobutyrylpiperazin-1-yl)-N-(3-methylazetidin-3-yl)imidazo[1,5-a]pyridine-6-sulfonamide] as the compound, how does the IC50 (PARG; [1]) read?
Answer: > 1000 nM

Question: And the IC50 (HCC1806; Homo sapiens, HCC1806, 168 h)?
Answer: > 30000 nM

Question: `CC(C)C(=O)N1CCN(c2cc(S(=O)(=O)NC3(C)CN(C)C3)cn3c(-c4nnc(C(F)F)s4)ncc23)CC1` [Example 51, 3-(5-(difluoromethyl)-1,3,4-thiadiazol-2-yl)-N-(1,3-dimethylazetidin-3-yl)-8-(4-isobutyrylpiperazin-1-yl)imidazo[1,5-a]pyridine-6-sulfonamide] was tested. Which IC50 (PARG; [1]) did it give?
Answer: > 1000 nM

Question: And the IC50 (HCC1806; Homo sapiens, HCC1806, 168 h)?
Answer: > 30000 nM

Question: How did the IC50 (PARG; [1]) turn out when `CC(C)C(=O)N1CCN(c2cc(S(=O)(=O)NC34CC(F)(C3)C4)cn3c(-c4nnc(C(F)F)s4)ncc23)CC1` [Example 59, 3-(5-(difluoromethyl)-1,3,4-thiadiazol-2-yl)-N-(3-fluorobicyclo[1.1.1]pentan-1-yl)-8-(4-isobutyrylpiperazin-1-yl)imidazo[1,5-a]pyridine-6-sulfonamide] was run?
Answer: > 1000 nM

Question: And the IC50 (HCC1806; Homo sapiens, HCC1806, 168 h)?
Answer: > 30000 nM

Question: How did the IC50 (PARG; [1]) turn out when `CC(C)C(=O)N1CCN(c2cc(S(=O)(=O)NC3(C)CC(F)(F)C3)cn3c(-c4nnc(C(F)F)s4)ncc23)CC1` [Example 61, N-(3,3-difluoro-1-methylcyclobutyl)-3-(5-(difluoromethyl)-1,3,4-thiadiazol-2-yl)-8-(4-isobutyrylpiperazin-1-yl)imidazo[1,5-a]pyridine-6-sulfonamide] was run?
Answer: 100 to 500 nM

Question: And the IC50 (PARG; PARG, TFMU-ADPr substrate)?
Answer: 121 nM

Question: And the IC50 (HCC1806; Homo sapiens, HCC1806, 168 h)?
Answer: > 30000 nM

Question: For `CC1(NS(=O)(=O)c2cc(N3CCC(O)(C(F)(F)F)CC3)c3cnc(-c4nnc(C(F)F)s4)n3c2)COC1` [Example 72, 3-(5-(difluoromethyl)-1,3,4-thiadiazol-2-yl)-8-(4-hydroxy-4-(trifluoromethyl)piperidin-1-yl)-N-(3-methyloxetan-3-yl)imidazo[1,5-a]pyridine-6-sulfonamide], which IC50 (PARG; [1]) is on record?
Answer: < 100 nM

Question: And the IC50 (PARG; PARG, TFMU-ADPr substrate)?
Answer: 17.8 nM

Question: What about the IC50 (HCC1806) of the same compound?
Answer: 805 nM

Question: What about the IC50 (HCC1806; Homo sapiens, HCC1806, 168 h) of the same compound?
Answer: 500 to 5000 nM

Question: What does the source list for `CC(C)C(=O)N1CCN(c2cc(S(=O)(=O)N[C@H]3C[C@H]3F)cn3c(-c4nnc(C(F)F)s4)ncc23)CC1` [Example 82, 3-(5-(difluoromethyl)-1,3,4-thiadiazol-2-yl)-N-((1S,2R)-2-fluorocyclopropyl)-8-(4-isobutyrylpiperazin-1-yl)imidazo[1,5-a]pyridine-6-sulfonamide]?
Answer: IC50 (PARG; [1]): 100 to 500 nM; IC50 (PARG; PARG, TFMU-ADPr substrate): 209 nM; IC50 (HCC1806): 7050 nM; IC50 (HCC1806; Homo sapiens, HCC1806, 168 h): 5000 to 30000 nM

Question: What does the source list for `CC1(C(=O)N2CCN(c3cc(S(=O)(=O)NC4(C#N)CC4)cn4c(-c5nnc(C(F)F)s5)ncc34)CC23CC3)CC1` [Example 91, N-(1-cyanocyclopropyl)-3-(5-(difluoromethyl)-1,3,4-thiadiazol-2-yl)-8-(4-(1-methylcyclopropane-1-carbonyl)-4,7-diazaspiro[2.5]octan-7-yl)imidazo[1,5-a]pyridine-6-sulfonamide]?
Answer: IC50 (PARG; [1]): < 100 nM; IC50 (PARG; PARG, TFMU-ADPr substrate): 31.6 nM; IC50 (HCC1806): 264 nM; IC50 (HCC1806; Homo sapiens, HCC1806, 168 h): < 500 nM

Question: What does the source list for `CC1(C(=O)N2CC3CCC2CN3c2cc(S(=O)(=O)NC3(C#N)CC3)cn3c(-c4nnc(C(F)F)s4)ncc23)CC1` (centres unmarked) [Example 92, N-(1-cyanocyclopropyl)-3-(5-(difluoromethyl)-1,3,4-thiadiazol-2-yl)-8-(5-(1-methylcyclopropane-1-carbonyl)-2,5-diazabicyclo[2.2.2]octan-2-yl)imidazo[1,5-a]pyridine-6-sulfonamide]?
Answer: IC50 (PARG; [1]): < 100 nM; IC50 (PARG; PARG, TFMU-ADPr substrate): 27.5 nM; IC50 (HCC1806): 974 nM; IC50 (HCC1806; Homo sapiens, HCC1806, 168 h): 500 to 5000 nM

Question: How did the IC50 (PARG; [1]) turn out when `CC(C)C(=O)N1CCN(c2cc(S(=O)(=O)NC3(C#N)CC3)cn3c(-c4nnc(C(F)F)s4)nnc23)CC1` [Example 105, N-(1-cyanocyclopropyl)-3-(5-(difluoromethyl)-1,3,4-thiadiazol-2-yl)-8-(4-isobutyrylpiperazin-1-yl)-[1,2,4]triazolo[4,3-a]pyridine-6-sulfonamide] was run?
Answer: < 100 nM

Question: What about the IC50 (PARG; PARG, TFMU-ADPr substrate) of the same compound?
Answer: 78.6 nM

Question: And the IC50 (HCC1806)?
Answer: 10000 nM

Question: And the IC50 (HCC1806; Homo sapiens, HCC1806, 168 h)?
Answer: 5000 to 30000 nM
